According to the supplement of paper PMC11061612:

Experiments:
AZD6738 = compound: C[C@@H]1COCCN1C2=NC(=NC(=C2)C3(CC3)[S@](=N)(=O)C)C4=C5C=CNC5=NC=C4 [AZD6738]; details: max 10 µM
Procedure, shortened: (§1)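 Following 24 hours at 37°C and 5% CO2, cancer cell lines in 1536-well plates with 7.5 μl DMEM/F12 or RPMI and 10% FBS were dosed for 72 hours, final DMSO typically being 0.2%. CellTiter-Glo 2.0 luminescence, scaled between blank-well and DMSO-well means, gave the viability readout. Dose responses were fitted to a two-parameter logistic curve with a non-linear mixed effects model, and the single-agent IC50 was derived from this fit.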

AZD1390 = compound: CC(C)n1c(=O)n(C)c2cnc3cc(F)c(-c4ccc(OCCCN5CCCCC5)nc4)cc3c21 [AZD1390]; details: max 0.3 µM
Procedure, shortened: as §1

Trametinib = compound: CC(=O)Nc1cccc(-n2c(=O)n(C3CC3)c(=O)c3c(Nc4ccc(I)cc4F)n(C)c(=O)c(C)c32)c1 [Trametinib]; details: max 1 µM
Procedure, shortened: as §1

Carboplatin = compound: C1CC(C1)(C(=O)[O-])C(=O)[O-].N.N.[Pt+2] [Carboplatin]; details: max 10 µM
Procedure, shortened: as §1

Crizotinib = compound: C[C@@H](Oc1cc(-c2cnn(C3CCNCC3)c2)cnc1N)c1c(Cl)ccc(F)c1Cl [Crizotinib]; details: max 10 µM
Procedure, shortened: as §1

AZD2811 = compound: CCN(CCO)CCCOc1ccc2c(Nc3cc(CC(=O)Nc4cccc(F)c4)[nH]n3)ncnc2c1 [AZD2811]; details: max 1 µM
Procedure, shortened: as §1

Etoposide = compound: COc1cc([C@@H]2c3cc4c(cc3[C@@H](O[C@@H]3O[C@@H]5CO[C@@H](C)O[C@H]5[C@H](O)[C@H]3O)[C@H]3COC(=O)[C@H]23)OCO4)cc(OC)c1O [Etoposide]; details: max 10 µM
Procedure, shortened: as §1

Doxorubicin = compound: COc1cccc2c1C(=O)c1c(O)c3c(c(O)c1C2=O)C[C@@](O)(C(=O)CO)C[C@@H]3O[C@H]1C[C@H](N)[C@H](O)[C@H](C)O1 [Doxorubicin]; details: max 1 µM
Procedure, shortened: as §1

AZD1775 = compound: C=CCn1c(=O)c2cnc(Nc3ccc(N4CCN(C)CC4)cc3)nc2n1-c1cccc(C(C)(C)O)n1 [AZD1775]; details: max 3 µM
Procedure, shortened: as §1

Dasatinib = compound: CC1=C(C(=CC=C1)Cl)NC(=O)C2=CN=C(S2)NC3=CC(=NC(=N3)C)N4CCN(CC4)CCO [Dasatinib]; details: max 2 µM
Procedure, shortened: as §1

Gemcitabine = compound: Nc1ccn([C@@H]2O[C@H](CO)[C@@H](O)C2(F)F)c(=O)n1 [Gemcitabine]; details: max 0.3 µM
Procedure, shortened: as §1

AZD7648 = compound: Cc1cc2ncnn2cc1Nc1ncc2c(n1)n(C1CCOCC1)c(=O)n2C [AZD7648]; details: max 10 µM
Procedure, shortened: as §1

5-Fluorouracil = compound: O=c1[nH]cc(F)c(=O)[nH]1 [5-Fluorouracil]; details: max 20 µM
Procedure, shortened: as §1

AZD0156 = compound: CN(C)CCCOc1ccc(-c2ccc3ncc4c(c3c2)n(C2CCOCC2)c(=O)n4C)cn1 [AZD0156]; details: max 3 µM
Procedure, shortened: as §1

Prexasertib = compound: COc1cccc(OCCCN)c1-c1cc(Nc2cnc(C#N)cn2)n[nH]1 [Prexasertib]; details: max 1 µM
Procedure, shortened: as §1

SRA737 = compound: N#Cc1cnc(Nc2cc(NC[C@H]3CNCCO3)c(C(F)(F)F)cn2)cn1 [SRA737]; details: max 10 µM
Procedure, shortened: as §1

AZD5153 = compound: COc1nnc2ccc(N3CCC(c4ccc(OCCN5CCN(C)C(=O)[C@H]5C)cc4)CC3)nn12 [AZD5153]; details: max 1 µM
Procedure, shortened: as §1

Palbociclib = compound: CC(=O)c1c(C)c2cnc(Nc3ccc(N4CCNCC4)cn3)nc2n(C2CCCC2)c1=O [Palbociclib]; details: max 10 µM
Procedure, shortened: as §1

Taselisib = compound: Cc1nc(-c2cn3c(n2)-c2ccc(-c4cnn(C(C)(C)C(N)=O)c4)cc2OCC3)n(C(C)C)n1 [Taselisib]; details: max 10 µM
Procedure, shortened: as §1

Gefitinib = compound: COc1cc2ncnc(Nc3ccc(F)c(Cl)c3)c2cc1OCCCN1CCOCC1 [Gefitinib]; details: max 10 µM
Procedure, shortened: as §1

[1] = compound: O=C(Nc1ccc2[nH]nc(-c3ccncc3)c2c1)[C@@H]1CCN(CC(=O)N2CCN(c3ccc(-c4ncccn4)cc3)CC2)C1; details: max 5 µM
Procedure, shortened: as §1

Savolitinib = compound: C[C@@H](c1ccc2nccn2c1)n1nnc2ncc(-c3cnn(C)c3)nc21 [Savolitinib]; details: max 1 µM
Procedure, shortened: as §1

Selumetinib = compound: Cn1cnc2c(F)c(Nc3ccc(Br)cc3Cl)c(C(=O)NOCCO)cc21 [Selumetinib]; details: max 10 µM
Procedure, shortened: as §1

AZD5991 = compound: Cc1c2c(nn1C)CSCc1cc(n(C)n1)CSc1cc(c3ccccc3c1)OCCCc1c(C(=O)O)n(C)c3c-2c(Cl)ccc13 [AZD5991]; details: max 1 µM
Procedure, shortened: as §1

MK-2206 = compound: NC1(c2ccc(-c3nc4ccn5c(=O)[nH]nc5c4cc3-c3ccccc3)cc2)CCC1 [MK-2206]; details: max 10 µM
Procedure, shortened: as §1

Venetoclax = compound: CC1(C)CCC(CN2CCN(c3ccc(C(=O)NS(=O)(=O)c4ccc(NCC5CCOCC5)c([N+](=O)[O-])c4)c(Oc4cnc5[nH]ccc5c4)c3)CC2)=C(c2ccc(Cl)cc2)C1 [Venetoclax]; details: max 1 µM
Procedure, shortened: as §1

Olaparib = compound: O=C(c1cc(Cc2n[nH]c(=O)c3ccccc23)ccc1F)N1CCN(C(=O)C2CC2)CC1 [Olaparib]; details: max 10 µM
Procedure, shortened: as §1

SG3199 = compound: CC1=CN2[C@@H](C1)C=NC3=CC(=C(C=C3C2=O)OC)OCCCCCOC4=C(C=C5C(=C4)N=C[C@@H]6CC(=CN6C5=O)C)OC [SG3199]; details: max 0.001 µM
Procedure, shortened: as §1

Lapatinib = compound: CS(=O)(=O)CCNCc1ccc(-c2ccc3ncnc(Nc4ccc(OCc5cccc(F)c5)c(Cl)c4)c3c2)o1 [Lapatinib]; details: max 10 µM
Procedure, shortened: as §1

SN-38 = compound: CCc1c2c(nc3ccc(O)cc13)-c1cc3c(c(=O)n1C2)COC(=O)[C@]3(O)CC [SN-38]; details: max 0.3 µM
Procedure, shortened: as §1

AZD4320 = compound: CN(CC[C@H](CSC1=CC=CC=C1)NC2=C(C=C(C=C2)S(=O)(=O)NC(=O)C3=CC=C(C=C3)N4CCC(CC4)[C@H](C5=CC=CC=C5C6=CC=C(C=C6)Cl)O)S(=O)(=O)C(F)(F)F)CCO [AZD4320]; details: max 1 µM
Procedure, shortened: as §1

AZD8186 = compound: C[C@@H](Nc1cc(F)cc(F)c1)c1cc(C(=O)N(C)C)cc2c(=O)cc(N3CCOCC3)oc12 [AZD8186]; details: max 10 µM
Procedure, shortened: as §1

AZD5363 = compound: C1CN(CCC1(C(=O)N[C@@H](CCO)C2=CC=C(C=C2)Cl)N)C3=NC=NC4=C3C=CN4 [AZD5363]; details: max 10 µM
Procedure, shortened: as §1

Alisertib = compound: COc1cc(Nc2ncc3c(n2)-c2ccc(Cl)cc2C(c2c(F)cccc2OC)=NC3)ccc1C(=O)O [Alisertib]; details: max 10 µM
Procedure, shortened: as §1

Paclitaxel = compound: CC(=O)O[C@H]1C(=O)[C@@]2(C)[C@H]([C@H](OC(=O)c3ccccc3)[C@]3(O)C[C@H](OC(=O)[C@H](O)[C@@H](NC(=O)c4ccccc4)c4ccccc4)C(C)=C1C3(C)C)[C@]1(OC(C)=O)CO[C@@H]1C[C@@H]2O [Paclitaxel]; details: max 3 µM
Procedure, shortened: as §1

| Cell Line | IC50, cell viability 72 h (AZD6738) [nM] | IC50, cell viability 72 h (AZD1390) [nM] | IC50, cell viability 72 h (Trametinib) [nM] | IC50, cell viability 72 h (Carboplatin) [nM] | IC50, cell viability 72 h (Crizotinib) [nM] | IC50, cell viability 72 h (AZD2811) [nM] | IC50, cell viability 72 h (Etoposide) [nM] | IC50, cell viability 72 h (Doxorubicin) [nM] | IC50, cell viability 72 h (AZD1775) [nM] | IC50, cell viability 72 h (Dasatinib) [nM] | IC50, cell viability 72 h (Gemcitabine) [nM] | IC50, cell viability 72 h (AZD7648) [nM] | IC50, cell viability 72 h (5-Fluorouracil) [nM] | IC50, cell viability 72 h (AZD0156) [nM] | IC50, cell viability 72 h (Prexasertib) [nM] | IC50, cell viability 72 h (SRA737) [nM] | IC50, cell viability 72 h (AZD5153) [nM] | IC50, cell viability 72 h (Palbociclib) [nM] | IC50, cell viability 72 h (Taselisib) [nM] | IC50, cell viability 72 h (Gefitinib) [nM] | IC50, cell viability 72 h [1] [nM] | IC50, cell viability 72 h (Savolitinib) [nM] | IC50, cell viability 72 h (Selumetinib) [nM] | IC50, cell viability 72 h (AZD5991) [nM] | IC50, cell viability 72 h (MK-2206) [nM] | IC50, cell viability 72 h (Venetoclax) [nM] | IC50, cell viability 72 h (Olaparib) [nM] | IC50, cell viability 72 h (SG3199) [nM] | IC50, cell viability 72 h (Lapatinib) [nM] | IC50, cell viability 72 h (SN-38) [nM] | IC50, cell viability 72 h (AZD4320) [nM] | IC50, cell viability 72 h (AZD8186) [nM] | IC50, cell viability 72 h (AZD5363) [nM] | IC50, cell viability 72 h (Alisertib) [nM] | IC50, cell viability 72 h (Paclitaxel) [nM] |
| --- | --- | --- | --- | --- | --- | --- | --- | --- | --- | --- | --- | --- | --- | --- | --- | --- | --- | --- | --- | --- | --- | --- | --- | --- | --- | --- | --- | --- | --- | --- | --- | --- | --- | --- | --- |
| WSU-DLCL2 (B-Cell Non-Hodgkin's Lymphoma) | 2690 | > 300 | > 1000 | > 10000 | 8080 | > 1000 | 730 | 53.9 | 531 | > 2000 | 6.5 | > 10000 | > 20000 | 2150 | 18.8 | > 10000 | 55.9 | 7440 | 2700 | > 10000 | > 5000 | > 1000 | > 10000 | 137 | 1670 | > 1000 | > 10000 | > 1 | > 10000 | 5.96 | 794 | 5810 | 253 | 1640 | 4.48 |
| EW-22 (Ewing's Sarcoma) | 1400 | > 300 | > 1000 | > 10000 | 3930 | 78.8 | 1150 | 64.8 | 694 | > 2000 | 6.06 | > 10000 | > 20000 | > 3000 | 7.62 | 3010 | 982 | > 10000 | 936 | > 10000 | > 5000 | > 1000 | > 10000 | > 1000 | > 10000 | 720 | 1730 | > 1 | > 10000 | 1.31 | 178 | > 10000 | > 10000 | 563 | 19.2 |
| SLVL (B-Cell Non-Hodgkin's Lymphoma) | 3760 | > 300 | 402 | > 10000 | 7080 | 195 | 850 | 76.8 | 836 | 1810 | 15.1 | > 10000 | 1560 | > 3000 | 19.9 | 2520 | 101 | > 10000 | 5560 | > 10000 | > 5000 | > 1000 | 9510 | > 1000 | > 10000 | > 1000 | > 10000 | > 1 | > 10000 | 2.35 | 428 | > 10000 | 4580 | 148 | 6.06 |
| SK-MEL-1 (Melanoma) | > 10000 | > 300 | 5.25 | > 10000 | > 10000 | > 1000 | > 10000 | > 1000 | > 3000 | > 2000 | > 300 | > 10000 | > 20000 | > 3000 | 659 | > 10000 | > 1000 | > 10000 | > 10000 | > 10000 | 846 | > 1000 | 509 | > 1000 | > 10000 | > 1000 | > 10000 | > 1 | > 10000 | 135 | > 1000 | > 10000 | > 10000 | > 10000 | > 3000 |
| FU-OV-1 (Ovarian Carcinoma) | > 10000 | > 300 | – | > 10000 | > 10000 | > 1000 | > 10000 | – | > 3000 | 1480 | > 300 | > 10000 | > 20000 | > 3000 | 694 | > 10000 | 511 | > 10000 | 1090 | > 10000 | 3800 | > 1000 | > 10000 | > 1000 | > 10000 | > 1000 | > 10000 | – | > 10000 | > 300 | > 1000 | > 10000 | > 10000 | > 10000 | > 3000 |
